This note sets out measurements from ChEMBL document CHEMBL5303573, “Mapping human microbiome drug metabolism by gut bacteria and their genes” (Nature, 2019).

Holding throughout (format): ADME
What all share (parameters): dose 2 uM
Settings in all cases: 2 µM

The target of one data set is General stress protein (Bacteroides thetaiotaomicron, UniProt Q8A7U5). In words: (§1) The drug is tested on Bacteroides thetaiotaomicron strain: VPI-5482 for biotransformation. The drug concentrations were measured before and after a 12-h incubation by liquid-chromatography-coupled mass spectrometry (LC–MS).
General stress protein, sequence (Q8A7U5 1-138, change not shown): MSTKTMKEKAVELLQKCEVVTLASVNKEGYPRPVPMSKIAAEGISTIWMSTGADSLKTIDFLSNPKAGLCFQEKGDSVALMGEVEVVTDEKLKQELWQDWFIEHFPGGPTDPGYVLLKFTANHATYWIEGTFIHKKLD
Data set [1] has as its target T1, Sialic acid-specific 9-O-acetylesterase (Bacteroides thetaiotaomicron, UniProt Q8A0D0).
T1 sequence (Q8A0D0 whole entry): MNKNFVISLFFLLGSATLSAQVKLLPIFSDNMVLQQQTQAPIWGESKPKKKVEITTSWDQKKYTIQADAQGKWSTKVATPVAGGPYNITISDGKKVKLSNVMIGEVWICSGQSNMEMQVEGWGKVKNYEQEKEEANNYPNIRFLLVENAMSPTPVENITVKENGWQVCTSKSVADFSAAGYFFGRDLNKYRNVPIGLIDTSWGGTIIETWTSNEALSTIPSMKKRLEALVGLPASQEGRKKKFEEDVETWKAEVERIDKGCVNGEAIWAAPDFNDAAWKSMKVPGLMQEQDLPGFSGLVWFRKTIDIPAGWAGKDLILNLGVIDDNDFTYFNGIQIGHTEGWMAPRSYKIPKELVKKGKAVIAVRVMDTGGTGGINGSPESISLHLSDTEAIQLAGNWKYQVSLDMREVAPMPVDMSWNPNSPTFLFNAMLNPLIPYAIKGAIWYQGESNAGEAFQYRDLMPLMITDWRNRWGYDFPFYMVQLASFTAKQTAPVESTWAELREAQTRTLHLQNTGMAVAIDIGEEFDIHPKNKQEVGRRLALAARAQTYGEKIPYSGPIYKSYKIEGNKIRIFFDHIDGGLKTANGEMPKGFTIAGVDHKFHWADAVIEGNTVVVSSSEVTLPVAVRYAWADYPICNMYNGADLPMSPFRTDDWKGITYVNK
The description is as §1.

In a further data set the target is T2, Xylanase (Bacteroides thetaiotaomicron, UniProt Q8A8H5).
T2 sequence (Q8A8H5 whole entry): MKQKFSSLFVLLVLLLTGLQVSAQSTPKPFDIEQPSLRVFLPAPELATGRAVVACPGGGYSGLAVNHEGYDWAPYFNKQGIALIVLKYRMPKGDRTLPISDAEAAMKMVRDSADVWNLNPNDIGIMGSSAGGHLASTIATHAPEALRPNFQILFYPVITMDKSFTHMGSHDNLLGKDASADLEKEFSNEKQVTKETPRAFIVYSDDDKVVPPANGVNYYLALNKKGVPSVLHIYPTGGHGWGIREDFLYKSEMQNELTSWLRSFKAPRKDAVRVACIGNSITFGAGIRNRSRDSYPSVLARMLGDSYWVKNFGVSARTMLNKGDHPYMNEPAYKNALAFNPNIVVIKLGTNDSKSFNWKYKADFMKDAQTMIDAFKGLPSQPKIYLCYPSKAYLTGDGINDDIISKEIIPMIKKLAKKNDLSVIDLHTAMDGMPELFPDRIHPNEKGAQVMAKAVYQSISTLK
The description is as §1.

The target in another data set is T3, Nitroreductase (Bacteroides thetaiotaomicron, UniProt Q8A911).
T3 sequence (Q8A911 whole entry): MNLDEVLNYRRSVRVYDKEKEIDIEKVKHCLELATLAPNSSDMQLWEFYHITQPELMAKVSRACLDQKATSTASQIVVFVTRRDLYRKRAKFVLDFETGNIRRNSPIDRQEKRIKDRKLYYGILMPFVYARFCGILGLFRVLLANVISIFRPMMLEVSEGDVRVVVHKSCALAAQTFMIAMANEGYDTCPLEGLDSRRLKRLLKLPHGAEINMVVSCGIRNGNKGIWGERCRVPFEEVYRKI
Described as §1.

In a further data set the target is T4, Endoglucanase E (EGE) (Bacteroides thetaiotaomicron, UniProt Q8AAL9).
T4 sequence (Q8AAL9 whole entry): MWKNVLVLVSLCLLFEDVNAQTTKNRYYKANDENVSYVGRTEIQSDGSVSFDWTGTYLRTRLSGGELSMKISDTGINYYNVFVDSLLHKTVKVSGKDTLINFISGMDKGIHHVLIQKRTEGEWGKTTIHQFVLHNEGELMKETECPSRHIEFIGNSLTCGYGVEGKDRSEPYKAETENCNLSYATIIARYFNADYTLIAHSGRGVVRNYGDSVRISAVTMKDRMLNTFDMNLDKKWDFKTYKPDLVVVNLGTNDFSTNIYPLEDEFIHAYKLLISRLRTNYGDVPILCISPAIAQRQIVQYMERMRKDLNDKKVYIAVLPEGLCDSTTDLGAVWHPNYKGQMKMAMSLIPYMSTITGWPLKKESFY
The description is as §1.

Another data set addresses T5, Acylhydrolase (Bacteroides thetaiotaomicron, UniProt Q8AA96).
T5 sequence (Q8AA96 whole entry): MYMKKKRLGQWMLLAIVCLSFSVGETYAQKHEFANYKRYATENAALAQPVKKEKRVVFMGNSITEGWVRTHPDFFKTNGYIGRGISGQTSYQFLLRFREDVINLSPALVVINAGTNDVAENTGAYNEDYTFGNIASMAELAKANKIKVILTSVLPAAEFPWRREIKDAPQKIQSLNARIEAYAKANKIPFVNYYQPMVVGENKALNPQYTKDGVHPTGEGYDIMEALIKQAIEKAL
Described as §1.

The target of data set [2] is T6, SGNH hydrolase-type esterase domain-containing protein (Phocaeicola dorei, UniProt B6W1J1).
T6 sequence (B6W1J1 whole entry): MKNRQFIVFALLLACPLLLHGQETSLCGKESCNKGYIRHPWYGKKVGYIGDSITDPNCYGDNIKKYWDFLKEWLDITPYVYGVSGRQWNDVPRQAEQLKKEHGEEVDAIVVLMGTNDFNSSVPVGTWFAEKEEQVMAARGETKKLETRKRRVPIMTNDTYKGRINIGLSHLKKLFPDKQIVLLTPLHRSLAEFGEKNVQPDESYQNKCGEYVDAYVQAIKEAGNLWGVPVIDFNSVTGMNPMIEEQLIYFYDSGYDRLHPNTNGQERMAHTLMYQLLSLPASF
Description: (§2) The drug is tested on Bacteroides dorei strain: DSM17855 for biotransformation. The drug concentrations were measured before and after a 12-h incubation by liquid-chromatography-coupled mass spectrometry (LC–MS).

The target in data set [3] is T7, Steroid 5-alpha reductase C-terminal domain-containing protein (Phocaeicola dorei, UniProt B6W0N3).
T7 sequence (B6W0N3 whole entry): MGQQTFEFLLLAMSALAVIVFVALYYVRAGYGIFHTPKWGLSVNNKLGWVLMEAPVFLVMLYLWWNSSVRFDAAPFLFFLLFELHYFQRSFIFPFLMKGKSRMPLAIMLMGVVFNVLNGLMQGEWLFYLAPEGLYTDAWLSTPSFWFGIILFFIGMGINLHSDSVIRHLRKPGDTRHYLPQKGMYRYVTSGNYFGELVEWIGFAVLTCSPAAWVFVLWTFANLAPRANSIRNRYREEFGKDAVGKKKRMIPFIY
The description is as §2.

Data set [4] addresses T8, Nitroreductase domain-containing protein (Phocaeicola dorei, UniProt B6W3P3).
T8 sequence (B6W3P3 whole entry): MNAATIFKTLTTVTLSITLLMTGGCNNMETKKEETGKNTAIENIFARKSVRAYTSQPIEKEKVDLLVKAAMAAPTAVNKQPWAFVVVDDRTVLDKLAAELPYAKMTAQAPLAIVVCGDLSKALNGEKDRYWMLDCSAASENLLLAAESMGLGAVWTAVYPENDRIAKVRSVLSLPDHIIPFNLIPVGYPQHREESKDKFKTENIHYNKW
Described as §2.

Turning to `C[C@]12CCC(=O)C=C1[C@@H]1C[C@@H]1[C@H]1[C@@H]3[C@@H]4C[C@@H]4[C@@]4(CCC(=O)O4)[C@@]3(C)CC[C@@H]12` [DROSPIRENONE], the “Bacterial Biotransformation” value (on General stress protein; in data set [1]; on Xylanase; at Nitroreductase; at Endoglucanase E (EGE); at Acylhydrolase) was “Compound NOT metabolized” each time. For the same compound, the “Bacterial Biotransformation” value is given as “Compound NOT metabolized” in data set [2], “Compound metabolized” in data set [3] and “Compound NOT metabolized” in [4].

`N#Cc1ccc2c(c1)N(CCCN1CCC(O)CC1)c1ccccc1S2` [PERICIAZINE]: the “Bacterial Biotransformation” value (at General stress protein; in [1]; on Xylanase; on Nitroreductase; on Endoglucanase E (EGE); at Acylhydrolase) was “Compound NOT metabolized” in each case. Besides, the “Bacterial Biotransformation” value in data set [2], in data set [3] and in data set [4] was “Compound NOT metabolized” throughout.
